Reference: US9676715B2, “Bis-indolic derivatives, a process for preparing the same and their uses as a drug” (UNIVERSITE JOSEPH FOURIER, priority 2011, dated 2017)

How the values were obtained:
E. faecalis ATCC 29212 = assay: MIC, microdilution method (9.1); assay type: cell-based, Enterococcus faecalis; settings: Enterococcus faecalis, ATCC29212, 18 h, read-out: MIC
How it was run: (§1)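 Inocula were prepared in Mueller Hinton broth and dispensed at a final density of 5×10^5 CFU/ml. Two-fold dilutions of each indole derivative, spanning 0.50-128 mg/L final, were added, and plates were kept at 37° C. in ambient air.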

E. faecium CIP 54.32 = assay: MIC, microdilution method (9.1); assay type: cell-based, Enterococcus faecium; settings: Enterococcus faecium, CIP54, 18 h, read-out: MIC
How it was run: as §1

[1] = system: Staphylococcus aureus 1199B (overexpression of the NorA efflux pump); assay: Efflux pump inhibition assay with sub-inhibitory ciprofloxacin; assay type: cell-based; settings: S. aureus 1199B
Description: (§2) The efflux pump inhibition potential of the bis-indolic derivatives was tested using two steps.
(§3) The following experimental protocol was used: indolic derivatives (initially solubilised in DMSO at 10 mg/mL) were dispensed in a 96-wells microplate by two fold serial dilutions in Muller-Hinton medium (MH, Bio Rad) using a Biomek 2000 (Beckman) handling robot. 100 μL of the bacterial inoculum (an overnight culture at 37° C. in 5 mL MH diluted 100-fold) was then added in each well. The total volume was 200 μL in each well and the final bacteria concentration 10^6 CFU/mL (CFU: colony forming unit). The highest final indolic derivative concentration was 128 mg/L. Growth was assayed with a microplate reader by monitoring absorption at 620 nm after 1, 2, 5, 7 and 24 h incubation at 37° C. In addition, the plates were read visually after 24 hours incubation. Cultures containing 5 μL DMSO were used as growth controls. In addition, two controls containing a sub-inhibitory or a inhibitory antibiotic concentration for the tested strain were performed. The antibiotics used were ampicillin (0.5 and 32 μg/mL) for E. coli, kanamycin (0.5 and 16 μg/mL) for S. aureus ATCC 25923, ciprofloxacin (4 and 64 mg/L) for S. aureus 1199B, ciprofloxacin (0.5 and 2 mg/L) for S. aureus K2378. All experiments were performed in duplicate.
(§4) Efflux pump inhibition assays were then performed against resistant Staphylococcus aureus strains SA 1199B and SA K2378 for bis-indolic derivatives. […] The minimal inhibitory concentration (MIC) of the bis-indolic compound allowing a complete inhibition of the bacterial growth in the presence of ciprofloxacin was determined.

[2] = system: Staphylococcus aureus K2378 (overexpresses the efflux pump NorA from a multicopy plasmid); assay: as above; assay type: cell-based; settings: S. aureus K2378; in the presence of ciprofloxacin 0.5 mg/L
Description: as §2, §3, §4

S. pneumoniae ATCC 6303 = assay: MIC, microdilution method (9.1); assay type: cell-based, Streptococcus pneumoniae; settings: Streptococcus pneumoniae, ATCC6303, 10% sheep blood, 5% CO2, 18 h, read-out: MIC
How it was run: (§5)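 Mueller Hinton broth cultures at 5×10^5 CFU/ml final were exposed to doubling concentrations of compound from 0.50 to 128 mg/L. Incubation: 37° C., ambient atmosphere. Method per CLSI M07-A8; blood supplement and CO2 reserved for fastidious organisms.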

[3] = system: S. agalactiae (group B) ATCC 12400; assay: MIC, microdilution method (9.1); assay type: cell-based, Streptococcus agalactiae; settings: Streptococcus agalactiae, ATCC12400, 18 h, read-out: MIC
How it was run: as §1

[4] = system: S. pyogenes (group A) CIP 104226; assay: MIC, microdilution method (9.1); assay type: cell-based, Streptococcus pyogenes; settings: Streptococcus pyogenes, CIP104226, 18 h, read-out: MIC
How it was run: as §1

S. mitis CIP 103335 = assay: MIC, microdilution method (9.1); assay type: cell-based, Streptococcus mitis; settings: Streptococcus mitis, CIP103335, 18 h, read-out: MIC
How it was run: as §1

[5] = system: KB (human mouth carcinoma); assay: In vitro cytotoxicity; assay type: cell-based; settings: read-out: % of cellular growth inhibition
Description: (§6) In vitro cytotoxicity was assayed on three cell lines—KB (human mouth carcinoma), MCR5 (human lung fibroblast) and HCT116 (human colon tumor). Results are presented in table IV as % of cellular growth inhibition in presence of 10^−5 M and 10^−6 M of the tested bis-indolic derivatives.

[6] = system: MRC5 (human lung fibroblast); assay: In vitro cytotoxicity; assay type: cell-based; settings: read-out: % of cellular growth inhibition
Description: as §6

[7] = system: HCT116 (human colon tumor); assay: In vitro cytotoxicity; assay type: cell-based; settings: read-out: % of cellular growth inhibition
Description: as §6

[8] = system: S. epidermidis ATCC 12228; assay: MIC, microdilution method (9.1); assay type: cell-based, Staphylococcus epidermidis; settings: Staphylococcus epidermidis, ATCC12228, read after 18 h, read-out: MIC
How it was run: as §1

S. aureus ATCC 29213 = assay: MIC, microdilution method (9.1); assay type: cell-based, Staphylococcus aureus; settings: Staphylococcus aureus, ATCC29213, read after 18 h, read-out: MIC
How it was run: as §1

S. aureus ATCC 25923 = assay: MIC, microdilution method (9.1); assay type: cell-based, Staphylococcus aureus; settings: Staphylococcus aureus, ATCC25923, read after 18 h, read-out: MIC
How it was run: as §1

[9] = system: Escherichia coli ATCC 25922; assay: MIC, microdilution method (9.1); assay type: cell-based; settings: ATCC25922, 18 h
How it was run: as §1

[10] = system: Serratia marcescens CIP 103551; assay: MIC, microdilution method (9.1); assay type: cell-based; settings: CIP103551, 18 h
How it was run: as §1

[11] = system: Enterobacter cloacae ATCC13047; assay: MIC, microdilution method (9.1); assay type: cell-based; settings: 18 h
How it was run: as §1

[12] = system: Klebsiella pneumoniae API ATCC 35657; assay: MIC, microdilution method (9.1); assay type: cell-based; settings: ATCC35657, 18 h, read-out: MIC
How it was run: as §1

[13] = system: Haemophilus influenzae ATCC 49766; assay: MIC, microdilution method (9.1); assay type: cell-based; settings: ATCC49766; Haemophilus influenzae ATCC 49766; 10% sheep blood, 5% CO2; 18 h; read-out: MIC
How it was run: as §5

S. pneumoniae ATCC 49619 = assay: MIC, microdilution method (9.1); assay type: cell-based; settings: Streptococcus pneumoniae, ATCC49619, 10% sheep blood, 5% CO2, 18 h
How it was run: as §5

[14] = system: Pseudomonas aeruginosa CIP 5933; assay: MIC, microdilution method (9.1); assay type: cell-based; settings: CIP5933, 18 h, read-out: MIC
How it was run: as §1

[15] = system: Bacillus subtilis CIP 5262; assay: MIC, microdilution method (9.1); assay type: cell-based; settings: CIP5262, 18 h, read-out: MIC
How it was run: as §1

[16] = system: Listeria innocua CIP 80.11; assay: MIC, microdilution method (9.1); assay type: cell-based; settings: CIP80, 18 h, read-out: MIC
How it was run: as §1

[17] = system: Acinetobacter baumanii ATCC 19606; assay: MIC, microdilution method (9.1); assay type: cell-based; settings: Acinetobacter baumannii, ATCC19606, 18 h, read-out: MIC
How it was run: as §1

[18] = system: HCT116 (human colon tumor); assay: In vitro cytotoxicity; assay type: cell-based; settings: HCT-116, HCT116, from 100 μM to 0.005 μM in DMSO, duplicate
[19] = system: 29 bacterial strains belonging to 17 different species; assay: MIC determination, overall statements on the bacterial panel; assay type: cell-based; settings: summary of MIC results
Description: The microdilution method recommended by the Clinical and Laboratory Standard Institute [M07-A8, Vol. 29, No. 2] was used. The activity of indolic compounds was tested against 29 bacterial strains belonging to 17 different species and 12 different genera (Staphylococcus, Streptococcus, Enterococcus, Listeria, Bacillus, Haemophilus, Escherichia, Klebsiella, Enterobacter, Serratia, Pseudomonas, and Acinetobacter). Bacterial inocula were prepared in Mueller Hinton broth (MH2, bioMérieux, Marcy L'Etoile, France), supplemented with 10% sheep blood for fastidious species (i.e., Streptococcus pneumoniae and Haemophilus influenzae). They were dispensed in 96 well microtiter plates (5×10^5 CFU/ml of final inoculum). Indolic compounds were added to the wells as to obtain two-fold serial concentrations (0.50-128 mg/L of final concentrations). Plates were incubated at 37° C. in ambient air, or at 37° C. in 5% CO2 enriched atmosphere for fastidious species. […] Drug-free cultures served as growth controls. Cultures receiving gentamicin, ciprofloxacin or cefotaxime served as positive controls.

[20] = system: S. epidermidis CIP 103627; assay: MIC, microdilution method (9.1); assay type: cell-based, Staphylococcus epidermidis; settings: Staphylococcus epidermidis, CIP103627, read after 18 h, read-out: MIC
How it was run: as §1

S. epidermidis CIP 81.55 = assay: MIC, microdilution method (9.1); assay type: cell-based, Staphylococcus epidermidis; settings: Staphylococcus epidermidis, CIP81, read after 18 h, read-out: MIC
How it was run: as §1

S. aureus CIP 103428 = assay: MIC, microdilution method (9.1); assay type: cell-based, Staphylococcus aureus; settings: Staphylococcus aureus, CIP103428, read after 18 h, read-out: MIC
How it was run: as §1

[21] = system: S. aureus ATCC 33592 (MRSA); assay: MIC, microdilution method (9.1); assay type: cell-based, Staphylococcus aureus; settings: Staphylococcus aureus, read after 18 h, read-out: MIC
How it was run: as §1

S. aureus ATCC 9144 = assay: MIC, microdilution method (9.1); assay type: cell-based, Staphylococcus aureus; settings: Staphylococcus aureus, ATCC9144, read after 18 h, read-out: MIC
How it was run: as §1

[22] = system: S. aureus ATCC 106414 (VISA); assay: MIC, microdilution method (9.1); assay type: cell-based, Staphylococcus aureus; settings: Staphylococcus aureus, read after 18 h, read-out: MIC
How it was run: as §1

[23] = system: S. aureus CIP 65.25 (MRSA); assay: MIC, microdilution method (9.1); assay type: cell-based, Staphylococcus aureus; settings: Staphylococcus aureus, read after 18 h, read-out: MIC
How it was run: as §1

S. aureus ATCC 6538 = assay: MIC, microdilution method (9.1); assay type: cell-based, Staphylococcus aureus; settings: Staphylococcus aureus, ATCC6538, read after 18 h, read-out: MIC
How it was run: as §1

S. aureus SA-1199B = assay: MIC, microdilution method (9.1); assay type: cell-based, Staphylococcus aureus; settings: Staphylococcus aureus, SA1199B, 18 h
How it was run: as §1

S. aureus CIP 65.6 = assay: MIC, microdilution method (9.1); assay type: cell-based, Staphylococcus aureus; settings: Staphylococcus aureus, CIP65, read after 18 h, read-out: MIC
How it was run: as §1

Structure (SMILES)	MIC (E. faecalis ATCC 29212) [µg/mL]	MIC (E. faecium CIP 54.32) [µg/mL]	MIC (S. pneumoniae ATCC 6303) [µg/mL]	MIC [3] [µg/mL]	MIC [4] [µg/mL]	MIC (S. mitis CIP 103335) [µg/mL]	MIC [8] [µg/mL]	MIC (S. aureus ATCC 29213) [µg/mL]	MIC (S. aureus ATCC 25923) [µg/mL]	MIC [9] [µg/mL]	MIC [10] [µg/mL]	MIC [11] [µg/mL]	MIC [12] [µg/mL]	MIC [13] [µg/mL]	MIC (S. pneumoniae ATCC 49619) [µg/mL]	MIC [14] [µg/mL]	MIC [15] [µg/mL]	MIC [16] [µg/mL]	MIC [17] [µg/mL]	other results
CC(C)(C)OC(=O)NCC(NC(=O)c1c[nH]c2ccccc12)c1c[nH]c2ccccc12 (stereo not shown) [Compound 3a, tert-Butyl (2-(1H-indol-3-yl)-2-(1H-indole-3-carboxamido)ethyl)carbamate]	> 128	> 128	> 128	> 128	> 128	> 128	> 128	> 128	> 128	> 128	> 128	> 128	> 128	> 128	> 128	> 128	> 128	> 128	> 128	MIC, mg/L (Ciprofloxacin concentration, mg/L) ([1]; in the presence of ciprofloxacin 1 mg/L): 2 (1) mg/L; MIC, mg/L (Ciprofloxacin concentration, mg/L) ([1]; in the presence of ciprofloxacin 2 mg/L): 0.5 (2) mg/L; MIC, mg/L (Ciprofloxacin concentration, mg/L) ([1]; in the presence of ciprofloxacin 4 mg/L): 0.25 (4) mg/L; MIC, mg/L (Ciprofloxacin concentration, mg/L) [2]: 4 (0.5) mg/L; inhibition at 10 µM ([5]; 10^−5 M): 18 ± 1%; inhibition at 1 µM ([5]; 10^−6 M): 16%; inhibition at 10 µM ([6]; 10^−5 M): 14 ± 1%; inhibition at 1 µM ([6]; 10^−6 M): 2%; inhibition at 10 µM ([7]; HCT-116, 10^−5 M): 22 ± 5%; inhibition at 1 µM ([7]; HCT-116, 10^−6 M): 11%
CC(C)(C)OC(=O)NCC(NC(=O)c1ccccc1)c1c[nH]c2ccc(Br)cc12 (stereo not shown) [Compound 8, t-Butyl (2-benzamido-2-(5-bromo-1H-indol-3-yl)ethyl) carbamate]	> 128	> 128	> 128	> 128	> 128	> 128	> 128	> 128	> 128	> 128	> 128	> 128	> 128	> 128	> 128	> 128	> 128	> 128	> 128	IC50 ([18]; first value): 6.14 µM; IC50 ([18]; second value): 7.33 µM; intrinsic antibacterial activity (in words) [19]: lack of intrinsic antibacterial activity; MIC [20]: > 128 µg/mL; MIC (S. epidermidis CIP 81.55): > 128 µg/mL; MIC (S. aureus CIP 103428): > 128 µg/mL; MIC [21]: > 128 µg/mL; MIC (S. aureus ATCC 9144): > 128 µg/mL; MIC [22]: > 128 µg/mL; MIC [23]: > 128 µg/mL; MIC (S. aureus ATCC 6538): > 128 µg/mL; MIC (S. aureus SA-1199B): > 128 µg/mL; MIC (S. aureus CIP 65.6): > 128 µg/mL
